Like-named read-outs stand apart in the source and are kept apart here.
What was measured:
[1] = system: P. falciparum strain NF54 gametocytes; assay: In vitro gametocyte induction and development assays; type: cell-based, Plasmodium falciparum
Procedure: To produce gametocytes, P. falciparum strain NF54 was cultured in vitro as described by Trager and Jensen ([46]) with minor modifications. Briefly, parasites were maintained in human type O-positive red blood cells (RBC) at 5% hematocrit (HCT) in RPMI 1640 medium supplemented with 10% heat-inactivated human serum, 10 mM hypoxanthine, 20 μg/ml gentamicin, The cultures were maintained at 37°C in a standard gas mixture of 5% O2, 5% CO2, 90% N2. Synchronous production of gametocytes was achieved as previously described ([47]). Briefly, asexual parasite cultures were synchronized by purifying schizonts with MACS cell separation columns (Miltenyi Biotec) and using them to reinvade erythrocytes. When parasitemia reached 10 to 15% rings, culture medium was supplemented with 50 mM N-acetylglucosamine (NAG; Sigma-Aldrich) for 5 days in order to clear residual asexual parasites and obtain a virtually pure gametocyte culture.
To assess the effect of gamhepathiopine on the induction of gametocytes, M1 (10 μM) was added at the same moment with NAG. For gametocyte development, gamhepathiopine was added 2 days after the addition of NAG. Medium replacement was performed every day. All cultures were prepared in parallel with controls corresponding to cultures that were treated with 0.1% DMSO. The percentages of each stage of gametocytes in cultures were assessed by microscopy of Giemsa-stained thin blood smears.
Figure S2. Protocol of in vitro gametocytocidal activity assays (NAG = N-acetylglucosamine). Gametocytes stages: I, II, III, IV and V. In blue: M1 effect on gametocyte induction: M1 (10 µM) added at D0 on asexual stage before induction with NAG (control= NAG+ DMSO). In green: M1 effect on gametocyte development: M1 (10 µM) added at D3 after induction (Control= DMSO). In red: M1 effect on exflagellation of mature male gametocytes on D10 (Control DMSO)

[2] = system: P. falciparum sporozoites invading primary human hepatocytes; assay: Hepatocyte invasion by preincubated P. falciparum sporozoites; conditions: Plasmodium falciparum, Hepatocyte, in Homo sapiens, sporozoites preincubated 1 h; for inhibition at 1 µM: read-out: inhibition of invasion of sporozoites into hepatocytes, 1 μM; for inhibition at 10 µM: read-out: inhibition of invasion of sporozoites into hepatocytes, 10 μM; for inhibition at 100 µM: read-out: inhibition of invasion of sporozoites into hepatocytes, 100 μM
Procedure: On the day of infection, 3 · 10^4 sporozoites of P. falciparum, P. yoelii, and P. cynomolgi were added to their respective host cell cultures (human, murine, and simian). The infected culture plates were centrifuged for 10 min at 900 × g, allowing fast parasite sedimentation, and further incubated with serial dilutions of M1. Culture medium containing the appropriate drug concentration was refreshed daily, and cells were fixed at 48 h postinfection (p.i.) for infections with P. yoelii, 6 days p.i. for P. falciparum, or 8 days p.i. for P. cynomolgi. For the in vitro sporozoite invasion experiments, P. falciparum sporozoites were preincubated with 1, 10, and 100 μM M1 for 1 h at room temperature before hepatocyte infections. Three hours later, after sporozoite penetration into hepatocytes, cultures were washed and then further incubated with or without the presence of the drug during 6 days. DMSO was used as a negative control.
The number, size, and shape of the parasites were determined using a CellInsight high-content screening platform equipped with Studio HCS software (ThermoFisher Scientific). […] Host cell and parasite nuclei were labeled with DAPI (4′,6-diamidino-2-phenylindole). […] The custom script used for counting and measuring parasites first required identification of the objects based on a fluorescence intensity threshold. The object identity was then further validated based on size and morphological (shape) criteria. The presence of DAPI-associated fluorescence in the selected objects allowed their final selection and the rejection of false positives. […] The parasitic size reduction was calculated on the average object area using the total surface area of each selected object (μm^2).

[3] = MTT cell viability assay, human primary hepatocytes; type: cell-based
Source text: Primary human hepatocytes were isolated from liver segments obtained from adult patients undergoing partial hepatectomy (Service de Chirurgie Digestive, Hépato-Bilio Pancréatique, Hôpital Pitié Salpêtrière, Paris, France). Primary simian hepatocytes were isolated from liver segments collected from healthy Macaca fascicularis monkeys from CEA, Fontenay aux Roses, France. All hepatocytes were obtained using collagenase perfusion as previously described ([40]). Simian hepatocytes were immediately cryopreserved with a Nicool-Freezal controlled rate freezer (Air Liquide Santé, Marne la Vallée, France) and then used when needed after fast thawing at 37°C. Primary murine hepatocytes were isolated from liver segments collected from BALB/c mice. Human and murine hepatocytes were used directly after their isolation. Cells were seeded in 96-well plates (Falcon; Becton Dickinson Labware Europe, France) coated with collagen I (BD Bioscience, USA) at a density of 80,000 cells per well. […]
The toxicity of M1 toward primary hepatocytes and HepG2-CD81 cells was evaluated through the MTT {[3-(4,5-dimethyl-2-thiazolyl)-2,5-diphenyl-2H-tetrazolium bromide]} test ([42]). […] Then, MTT was replaced by a mixture of DMSO-ethanol (1:1) to dissolve formazan crystals and the absorbance was read at 540 nm on a FlexStation plate reader.

[4] = cultures additionally treated until day 6
[5] = cultures then without drug for 6 days

**Q.** Which results are given for Cc1ccc(-c2cc3nc(NC(C)(C)C)[nH]c(=O)c3s2)cc1 [Metabolite M1, 2-(tert-Butylamino)-6-(p-tolyl)thieno[3,2-d]pyrimidin-4(3H)-one]?
**A.** stage III gametocytes mean value ([1]; 10 μM added after induction, day 6 postinduction, control 1.29): 0.48; stage V gametocytes mean value ([1]; 10 μM added after induction, day 10 postinduction, control 0.70): 0.26; reduction of the conversion rate of asexual parasites into gametocytes ([1]; 10 μM added at D0 with NAG, renewed every day): 87.8%; inhibition at 1 µM [2, 4]: 80%; inhibition at 1 µM [2, 5]: 30%; inhibition at 10 µM [2, 4]: 100%; inhibition at 10 µM [2, 5]: 60%; inhibition at 100 µM [2, 4]: 100%; inhibition at 100 µM [2, 5]: ~100%; CC50 at 5 days [3]: > 60 µM
